From patent US10696693B2, “Fused imidazole derivatives as TGF-beta inhibitors” (Rigel Pharmaceuticals, Inc., priority 2014, dated 2020)
Where two headings read alike, the source gives them in different places.

Key:
[1] = system: TGF-β; test: AlphaScreen SureFire p-SMAD3 (Ser423/425) assay, TGF-β-stimulated cells; format: cell-based; conditions: Mus musculus
Method in brief: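 The p-SMAD-3 (Ser423/425) SureFire assay measured phosphorylation of endogenous SMAD-3 in cell lysates. Cells were plated overnight in collagen-coated plates, exposed to three-fold serially diluted compounds for about 10 minutes, then stimulated with TGFβ. Lysates (5 μL) received acceptor bead mix for 2 hours, then donor beads for 1½ hours before AlphaScreen reading.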

[2] = system: GDF8; test: AlphaScreen SureFire p-SMAD3 (Ser423/425) assay, GDF8-stimulated cells; format: cell-based; conditions: Mus musculus
Method in brief: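 A SureFire AlphaScreen assay measured phosphorylation of endogenous SMAD-3 at Ser423/425 in cell lysates. Cells were treated with three-fold serially diluted compounds in DMSO for about 10 minutes, then stimulated with GDF8. After medium removal, cells were lysed in 1× Lysis Buffer (about 25 μL) with gentle shaking for 5-10 minutes.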

[3] = p-SMAD3 (Ser423/425) AlphaScreen in cell lysate, MPC-11, TGF-β stimulation, read-out: TGF-β: inhibition of TGF-β signaling, TGF-β pSMAD (MPC-11)
[4] = MPC-11, p-SMAD3 (Ser423/425) AlphaScreen in cell lysate, MPC11, GDF8 stimulation, read-out: GDF8: inhibition of GDF8 signaling, GDF pSMAD (MPC11)
[5] = MPC-11, read-out: TGF-β: inhibition of TGF-β signaling, TGF-β pSMAD (MPC-11), p-SMAD3 (Ser423/425) AlphaScreen in cell lysate, TGF-β stimulation
[6] = MPC-11, read-out: GDF8: inhibition of GDF8 signaling, GDF pSMAD (MPC11), p-SMAD3 (Ser423/425) AlphaScreen in cell lysate, GDF8 stimulation

IC50 [1, 3] [nM] | IC50 [2, 4] [nM] | SMILES | IC50 [1, 5] [nM] | IC50 [2, 6] [nM]
100 to 1000 | 100 to 1000 | Fc1ccc(-c2nc3occn3c2-c2ccc3nccnc3c2)c(F)c1 [Compound 157, 6-(2,4-difluorophenyl)-5-(quinoxalin-6-yl)imidazo[2,1-b]oxazole] |  | 
100 to 1000 | 50 to 100 | Fc1ccc(-c2nc3occn3c2-c2ccc3ncccc3c2)c(F)c1F [Compound 162, 5-(quinolin-6-yl)-6-(2,3,4-trifluorophenyl)imidazo[2,1-b]oxazole] |  | 
100 to 1000 | 100 to 1000 | Fc1ccc(-c2nc3occn3c2-c2ccc3nccnc3c2)c(F)c1F [Compound 164, 5-(quinoxalin-6-yl)-6-(2,3,4-trifluorophenyl)imidazo[2,1-b]oxazole] |  | 
100 to 1000 | > 1000 | Fc1cc(F)c(F)c(-c2nc3n(c2-c2ccc4ncccc4c2)CCCN3)c1 [Compound 165, 6-(2-(2,3,5-trifluorophenyl)-5,6,7,8-tetrahydroimidazo[1,2-a]pyrimidin-3-yl)quinoline] |  | 
> 1000 | > 1000 | COCCOc1cnc2ccc(-c3c(-c4cc(F)cc(F)c4F)nc4n3CCCN4)cc2n1 [Compound 167, 2-(2-methoxyethoxy)-7-(2-(2,3,5-trifluorophenyl)-5,6,7,8-tetrahydroimidazo[1,2-a]pyrimidin-3-yl)quinoxaline] |  | 
50 to 100 | < 50 | Cc1cccc(-c2nc3n(c2-c2ccc4[nH]ncc4c2)CCC3)c1 [Compound 168, 5-(2-(m-tolyl)-6,7-dihydro-5H-pyrrolo[1,2-a]imidazol-3-yl)-1H-indazole] |  | 
50 to 100 | < 50 | Cc1cccc(-c2nc3n(c2-c2ccc4cn[nH]c4c2)CCC3)c1 [Compound 169, 6-(2-(m-tolyl)-6,7-dihydro-5H-pyrrolo[1,2-a]imidazol-3-yl)-1H-indazole] |  | 
50 to 100 | < 50 | Cc1cccc(-c2nc3n(c2-c2ccc4ncsc4c2)CCC3)c1 [Compound 170, 6-(2-(m-tolyl)-6,7-dihydro-5H-pyrrolo[1,2-a]imidazol-3-yl)benzo[d]thiazole] |  | 
100 to 1000 | 50 to 100 | Cc1cccc(-c2nc3n(c2-c2ccc4[nH]cnc4c2)CCC3)c1 [Compound 171, 5-(2-(m-tolyl)-6,7-dihydro-5H-pyrrolo[1,2-a]imidazol-3-yl)-1H-benzo[d]imidazole] |  | 
50 to 100 | < 50 | Cc1cc(-c2nc3n(c2-c2ccc4ncsc4c2)CCC3)ccc1F [Compound 173, 6-(2-(4-fluoro-3-methylphenyl)-6,7-dihydro-5H-pyrrolo[1,2-a]imidazol-3-yl)benzo[d]thiazole] |  | 
100 to 1000 | 50 to 100 | Cc1cc(-c2nc3n(c2-c2ccc4cn[nH]c4c2)CCC3)ccc1F [Compound 177, 6-(2-(4-fluoro-3-methylphenyl)-6,7-dihydro-5H-pyrrolo[1,2-a]imidazol-3-yl)-1H-indazole] |  | 
100 to 1000 | 50 to 100 | Cc1cc(-c2nc3n(c2-c2ccc4nccnc4c2)CCC3)ccc1F [Compound 179, 6-(2-(4-fluoro-3-methylphenyl)-6,7-dihydro-5H-pyrrolo[1,2-a]imidazol-3-yl)quinoxaline] |  | 
100 to 1000 | < 50 | Cc1cccc(-c2nc3n(c2-c2ccc4nccnc4c2)CCC3)c1 [Compound 180, 6-(2-(m-tolyl)-6,7-dihydro-5H-pyrrolo[1,2-a]imidazol-3-yl)quinoxaline] |  | 
100 to 1000 | 50 to 100 | FC(F)(F)c1cccc(-c2nc3n(c2-c2ccc4[nH]ncc4c2)CCC3)c1 [Compound 181, 5-(2-(3-(trifluoromethyl)phenyl)-6,7-dihydro-5H-pyrrolo[1,2-a]imidazol-3-yl)-1H-indazole] |  | 
100 to 1000 | 50 to 100 | FC(F)(F)c1cccc(-c2nc3n(c2-c2ccc4cn[nH]c4c2)CCC3)c1 [Compound 182, 6-(2-(3-(trifluoromethyl)phenyl)-6,7-dihydro-5H-pyrrolo[1,2-a]imidazol-3-yl)-1H-indazole] |  | 
100 to 1000 | 50 to 100 | FC(F)(F)c1cccc(-c2nc3n(c2-c2ccc4ncsc4c2)CCC3)c1 [Compound 183, 6-(2-(3-(trifluoromethyl)phenyl)-6,7-dihydro-5H-pyrrolo[1,2-a]imidazol-3-yl)benzo[d]thiazole] |  | 
100 to 1000 | 50 to 100 | FC(F)(F)c1cccc(-c2nc3n(c2-c2ccc4nccnc4c2)CCC3)c1 [Compound 184, 6-(2-(3-(trifluoromethyl)phenyl)-6,7-dihydro-5H-pyrrolo[1,2-a]imidazol-3-yl)quinoxaline] |  | 

Second part, the compound before the results:

SMILES | IC50 [1, 3] [nM] | IC50 [2, 4] [nM] | IC50 [1, 5] [nM] | IC50 [2, 6] [nM]
Fc1ccc(-c2nc3occn3c2-c2ccc3ncsc3c2)c(F)c1 [Compound 156, 5-(benzo[d]thiazol-6-yl)-6-(2,4-difluorophenyl)imidazo[2,1-b]oxazole] | 50 to 100 | < 50 |  | 
Fc1ccc(-c2nc3occn3c2-c2ccc3ncccc3c2)c(F)c1 [Compound 158, 5-(quinolin-6-yl)-6-(2,4-difluorophenyl)imidazo[2,1-b]oxazole] | 50 to 100 | < 50 |  | 
Fc1ccc(-c2nc3occn3c2-c2ccc3nccn3c2)c(F)c1 [Compound 159, 6-(2,4-difluorophenyl)-5-(imidazo[1,2-a]pyridin-6-yl)imidazo[2,1-b]oxazole] | 50 to 100 | < 50 |  | 
Fc1ccc(-c2nc3occn3c2-c2ccc3[nH]ncc3c2)c(F)c1F [Compound 160, 6-(2,3,4-trifluorophenyl)-5-(1H-indazol-5-yl)imidazo[2,1-b]oxazole] | 100 to 1000 | 50 to 100 |  | 
Fc1ccc(-c2nc3occn3c2-c2ccc3ncsc3c2)c(F)c1F [Compound 161, 5-(benzo[d]thiazol-6-yl)-6-(2,3,4-trifluorophenyl)imidazo[2,1-b]oxazole] | 100 to 1000 | 50 to 100 |  | 
Fc1ccc(-c2nc3occn3c2-c2ccc3nccn3c2)c(F)c1F [Compound 163, 5-(imidazo[1,2-a]pyridin-6-yl)-6-(2,3,4-trifluorophenyl)imidazo[2,1-b]oxazole] | 100 to 1000 | 50 to 100 |  | 
Fc1cc(F)c(F)c(-c2nc3n(c2-c2ccc4ncnn4c2)CCCN3)c1 [Compound 166, 6-(2-(2,3,5-trifluorophenyl)-5,6,7,8-tetrahydroimidazo[1,2-a]pyrimidin-3-yl)-[1,2,4]triazolo[1,5-a]pyridine] | 50 to 100 | 50 to 100 |  | 
Cc1cc(-c2nc3n(c2-c2ccc4[nH]ncc4c2)CCC3)ccc1F [Compound 172, 5-(2-(4-fluoro-3-methylphenyl)-6,7-dihydro-5H-pyrrolo[1,2-a]imidazol-3-yl)-1H-indazole] |  |  | 50 to 100 | < 50
Fc1ccc(-c2nc3n(c2-c2ccc4ncsc4c2)CCC3)cc1 [Compound 174, 6-(2-(4-fluorophenyl)-6,7-dihydro-5H-pyrrolo[1,2-a]imidazol-3-yl)benzo[d]thiazole] |  |  | 100 to 1000 | 50 to 100
Fc1ccc(-c2nc3n(c2-c2ccc4[nH]ncc4c2)CCC3)cc1 [Compound 175, 5-(2-(4-fluorophenyl)-6,7-dihydro-5H-pyrrolo[1,2-a]imidazol-3-yl)-1H-indazole] |  |  | 100 to 1000 | 100 to 1000
Fc1ccc(-c2nc3n(c2-c2ccc4cn[nH]c4c2)CCC3)cc1 [Compound 176, 6-(2-(4-fluorophenyl)-6,7-dihydro-5H-pyrrolo[1,2-a]imidazol-3-yl)-1H-indazole] |  |  | > 1000 | 100 to 1000
Fc1ccc(-c2nc3n(c2-c2ccc4nccnc4c2)CCC3)cc1 [Compound 178, 6-(2-(4-fluorophenyl)-6,7-dihydro-5H-pyrrolo[1,2-a]imidazol-3-yl)quinoxaline] |  |  | > 1000 | 100 to 1000
COc1cccc(-c2nc3n(c2-c2ccc4[nH]ncc4c2)CCC3)c1 [Compound 185, 5-(2-(3-methoxyphenyl)-6,7-dihydro-5H-pyrrolo[1,2-a]imidazol-3-yl)-1H-indazole] |  |  | 100 to 1000 | 100 to 1000
COc1cccc(-c2nc3n(c2-c2ccc4cn[nH]c4c2)CCC3)c1 [Compound 186, 6-(2-(3-methoxyphenyl)-6,7-dihydro-5H-pyrrolo[1,2-a]imidazol-3-yl)-1H-indazole] |  |  | 100 to 1000 | 50 to 100
COc1cccc(-c2nc3n(c2-c2ccc4ncsc4c2)CCC3)c1 [Compound 187, 6-(2-(3-methoxyphenyl)-6,7-dihydro-5H-pyrrolo[1,2-a]imidazol-3-yl)benzo[d]thiazole] |  |  | 100 to 1000 | 50 to 100
COc1cccc(-c2nc3n(c2-c2ccc4nccnc4c2)CCC3)c1 [Compound 188, 6-(2-(3-methoxyphenyl)-6,7-dihydro-5H-pyrrolo[1,2-a]imidazol-3-yl)quinoxaline] |  |  | 100 to 1000 | 100 to 1000
Clc1cccc(-c2nc3n(c2-c2ccc4[nH]ncc4c2)CCC3)c1 [Compound 189, 5-(2-(3-chlorophenyl)-6,7-dihydro-5H-pyrrolo[1,2-a]imidazol-3-yl)-1H-indazole] |  |  | 100 to 1000 | 50 to 100
Clc1cccc(-c2nc3n(c2-c2ccc4cn[nH]c4c2)CCC3)c1 [Compound 190, 6-(2-(3-chlorophenyl)-6,7-dihydro-5H-pyrrolo[1,2-a]imidazol-3-yl)-1H-indazole] |  |  | 50 to 100 | < 50
